Read-outs that look alike come from different tables or passages of the source.
Assays:
[1] = tested on: K. pneumoniae NVT1001 gyrA/parC and gyrA/parC/ramR mutants and revertants; assay: Etest MIC of quinolones, gyrA/parC and gyrA/parC/ramR mutants and their revertants (Table 11); format: cell-based; conditions: Klebsiella pneumoniae
Text: The allelic-exchange method was used to restore the wild-type gene in the K. pneumoniae NVT1001 mutants with constructed chromosome-mediated resistance mechanisms, as described by Tsai et al.^19 Briefly, a DNA fragment of the entire wild-type gene sequence along with flanking regions was amplified from K. pneumoniae NVT1001 using PCR with specific primers. The resulting PCR fragment was digested and then cloned into pUT-KB. For homologous recombination, this plasmid was transformed into E. coli S17-1 λpir^23 via electroporation and mobilized into the K. pneumoniae NVT1001 mutant via conjugation. […] After incubation in 20 mL BHI broth for 6 hours at 37° C. in the absence of kanamycin, the fully grown cultures were spread onto LB agar plates supplemented with 10% sucrose. After the double crossover occurred, the sucrose-resistant and kanamycin-susceptible colonies were selected, and the restoration of the wild-type gene was confirmed via DNA sequencing.
(§1) The MICs of antibiotics were determined using the Etest (Biodisk AB, Sweden) according to the manufacturer's instructions. The MICs from the Etest, which fall between standard two-fold dilutions, were rounded up to the next highest two-fold value. The MICs of ceftazidime and cefotaxime against K. pneumoniae NVT1001 harbouring the pACYC177 plasmid with blaOXA-48 were further determined using a broth microdilution test according to the recommendations of the CLSI,^25 and the results were interpreted according to the breakpoints established by the CLSI in 2017.^25 Meanwhile, due to the lack of CLSI breakpoints in 2016 and 2017, the results for cephalothin were interpreted according to the breakpoints established by the CLSI in 2015,^26 and the results for moxifloxacin were interpreted according to the breakpoints established by the EUCAST in 2017.^27

[2] = tested on: K. pneumoniae NVT1001 strains with QnrB, QnrS or AAC(6′)-Ib-cr plasmids; assay: Etest MIC of quinolones, GyrA/ParC mutations, ΔramR and/or QnrB, QnrS or AAC(6′)-Ib-cr (Table 12); format: cell-based; conditions: Klebsiella pneumoniae
Method: DNA fragments of the resistance genes along with their flanking regions were amplified from clinical plasmids via PCR with specific primer pairs. The resulting PCR fragments were digested and then cloned into the plasmid pACYC177 or pACYC184. The resulting plasmids were then transformed into K. pneumoniae strain NVT1001 via electroporation. The recombinant bacteria were plated onto LB agar plates containing kanamycin (50 mg/L) or chloramphenicol (50 mg/L), and the presence of the cloned gene was confirmed via PCR and DNA sequencing.
as §1

## CCn1cc(C(=O)O)c(=O)c2cc(F)c(N3CCNCC3)cc21 [Norfloxacin, norfloxacin]
[1]; S83F/D87N/S80I mutant
  MIC: 32 µg/mL
[1]; S83F/D87N/S80I::F83S/N87D/I80S revertant, read-out: MIC
  MIC: 0.25 µg/mL
[1]; S83F/D87N/S80I::I80S revertant, read-out: MIC
  MIC: 2 µg/mL
[1]; S83F/D87N/S80I::N87D revertant, read-out: MIC
  MIC: 4 µg/mL
[1]; S83F/D87N/S80I::N87D/I80S revertant, read-out: MIC
  MIC: 2 µg/mL
[1]; S83I/D87N/S80I mutant
  MIC: 64 µg/mL
[1]; S83I/D87N/S80I::I80S revertant, read-out: MIC
  MIC: 2 µg/mL
[1]; S83I/D87N/S80I::I83S/N87D/I80S revertant, read-out: MIC
  MIC: 0.25 µg/mL
[1]; S83I/D87N/S80I::N87D revertant, read-out: MIC
  MIC: 16 µg/mL
[1]; S83I/D87N/S80I::N87D/I80S revertant, read-out: MIC
  MIC: 2 µg/mL
[1]; S83L/D87N/S80I mutant
  MIC: 64 µg/mL
[1]; S83L/D87N/S80I::I80S revertant, read-out: MIC
  MIC: 2 µg/mL
[1]; S83L/D87N/S80I::L83S/N87D/I80S revertant, read-out: MIC
  MIC: 0.25 µg/mL
[1]; S83L/D87N/S80I::N87D revertant, read-out: MIC
  MIC: 8 µg/mL
[1]; S83L/D87N/S80I::N87D/I80S revertant, read-out: MIC
  MIC: 2 µg/mL
[1]; S83Y/D87N/S80I mutant
  MIC: 32 µg/mL
[1]; S83Y/D87N/S80I::I80S revertant, read-out: MIC
  MIC: 2 µg/mL
[1]; S83Y/D87N/S80I::N87D revertant, read-out: MIC
  MIC: 4 µg/mL
[1]; S83Y/D87N/S80I::N87D/I80S revertant, read-out: MIC
  MIC: 2 µg/mL
[1]; S83Y/D87N/S80I::Y83S/N87D/I80S revertant, read-out: MIC
  MIC: 0.25 µg/mL
[1]; ΔramR/S83I/D87N/S80I mutant
  MIC: > 256 µg/mL
[1]; ΔramR/S83I/D87N/S80I:: ramR/I83S revertant
  MIC: 2 µg/mL
[1]; ΔramR/S83I/D87N/S80I:: ramR/I83S/I80S revertant
  MIC: 1 µg/mL
[1]; ΔramR/S83I/D87N/S80I:: ramR/I83S/N87D revertant
  MIC: 0.25 µg/mL
[1]; ΔramR/S83I/D87N/S80I::I83S/N87D/I80S revertant
  MIC: 2 µg/mL
[1]; ΔramR/S83I/D87N/S80I::N87D revertant
  MIC: 128 µg/mL
[1]; ΔramR/S83I/D87N/S80I::N87D/I80S revertant
  MIC: 8 µg/mL
[1]; ΔramR/S83I/D87N/S80I::ramR/I83S/N87D/I80S
  MIC: 0.25 µg/mL
[2]; AAC(6′)-Ib-cr on pACYC177, S83I mutant
  MIC: 8 µg/mL
[2]; AAC(6′)-Ib-cr on pACYC177, S83I/D87N/S80I mutant
  MIC: > 256 µg/mL
[2]; AAC(6′)-Ib-cr on pACYC177, S83I/S80I mutant
  MIC: 128 µg/mL
[2]; AAC(6′)-Ib-cr on pACYC177, WT (NVT1001), read-out: MIC
  MIC: 1 µg/mL
[2]; AAC(6′)-Ib-cr on pACYC177, ΔramR mutant
  MIC: 8 µg/mL
[2]; AAC(6′)-Ib-cr on pACYC177, ΔramR/S83I mutant
  MIC: 128 µg/mL
[2]; AAC(6′)-Ib-cr on pACYC177, ΔramR/S83I/D87N/S80I mutant
  MIC: > 256 µg/mL
[2]; AAC(6′)-Ib-cr on pACYC177, ΔramR/S83I/S80I mutant
  MIC: > 256 µg/mL
[2]; QnrB on pACYC177, S83I mutant
  MIC: 8 µg/mL
[2]; QnrB on pACYC177, S83I/D87N/S80I mutant
  MIC: > 256 µg/mL
[2]; QnrB on pACYC177, S83I/S80I mutant
  MIC: > 256 µg/mL
[2]; QnrB on pACYC177, WT (NVT1001), read-out: MIC
  MIC: 2 µg/mL
[2]; QnrB on pACYC177, ΔramR mutant
  MIC: 16 µg/mL
[2]; QnrB on pACYC177, ΔramR/S83I mutant
  MIC: 64 µg/mL
[2]; QnrB on pACYC177, ΔramR/S83I/D87N/S80I mutant
  MIC: > 256 µg/mL
[2]; QnrB on pACYC177, ΔramR/S83I/S80I mutant
  MIC: > 256 µg/mL
[2]; QnrS on pACYC177, S83I mutant
  MIC: 8 µg/mL
[2]; QnrS on pACYC177, S83I/D87N/S80I mutant
  MIC: 128 µg/mL
[2]; QnrS on pACYC177, S83I/S80I mutant
  MIC: 64 µg/mL
[2]; QnrS on pACYC177, WT (NVT1001), read-out: MIC
  MIC: 2 µg/mL
[2]; QnrS on pACYC177, ΔramR mutant
  MIC: 32 µg/mL
[2]; QnrS on pACYC177, ΔramR/S83I mutant
  MIC: 64 µg/mL
[2]; QnrS on pACYC177, ΔramR/S83I/D87N/S80I mutant
  MIC: > 256 µg/mL
[2]; QnrS on pACYC177, ΔramR/S83I/S80I mutant
  MIC: > 256 µg/mL
[2]; no supplemental plasmid, S83I mutant
  MIC: 2 µg/mL
[2]; no supplemental plasmid, S83I/D87N/S80I mutant
  MIC: 64 µg/mL
[2]; no supplemental plasmid, S83I/S80I mutant
  MIC: 16 µg/mL
[2]; no supplemental plasmid, WT (NVT1001), read-out: MIC
  MIC: 0.25 µg/mL
[2]; no supplemental plasmid, ΔramR mutant
  MIC: 2 µg/mL
[2]; no supplemental plasmid, ΔramR/S83I mutant
  MIC: 8 µg/mL
[2]; no supplemental plasmid, ΔramR/S83I/D87N/S80I mutant
  MIC: > 256 µg/mL
[2]; no supplemental plasmid, ΔramR/S83I/S80I mutant
  MIC: 128 µg/mL
